pKi: −log10 of the molar value.
Key:
human recombinant DAT = human recombinant DAT (Homo sapiens, UniProt Q01959); assay: DAT radioligand binding assay (scintillation proximity, [3H]WIN-35428)
Protocol: (§1) Affinity of the compounds for monoamine transporters was determined by in vitro radioligand binding assays using cell membrane preparations derived from HEK293 cell lines stably expressing human recombinant DAT, NET or SERT receptor (Suven Life Sciences, Hyderabad, India).
(§2) Stable DAT cell lines were generated following procedures described in Eshelman et al., Molecular Pharmacology 45, 312-316; 1994. Stable NET cell lines were generated following procedures described in Pacholczyk et al., Nature 350, 350-354, 1991 and Galli et al., Journal Exp. Biol. 198, 2197-2212, 1995. Stable SERT cell lines were generated following procedures described in Ramamoorthy et al., Proc Natl Acad Sci USA 90, 2542-246, 1993.
(§3) Cell membranes were obtained from the above-referenced cell lines by manually homogenizing previously frozen cell pellets in Tris-HCl buffer and serially centrifugating and re-extracting the preparations according procedures described in Subbu et al., Journal Pharmacol ExpTher 327, 982-990, 2008.
(§4) A scintillation proximity assay was used to measure receptor binding. Homogenized membrane preparations (final protein concentration 8-15 ug/well) were pre-incubated with WGA PVT SPA beads (0.5 mg/well) for 5 minutes. Binding was initiated by adding high affinity ligands and test compounds (0.1 nM to 10 μM) or reference/positive control ligands to the membrane-bead complex. Plates were incubated for three hours and raw data counts recorded using a liquid scintillation counter (MicroBetaTriLux Counter, Perkin Elmer). Inhibition constants (Ki) were calculated using GraphPad Prism software (version 4.0).
DAT receptor binding was determined using procedures described in Skolnick et al., European Journal of Pharmacology, 461(2-3):99-104, 2003; and Eshleman et al., The Journal of Pharmacology and Experimental Therapeutics 289:877-885, 1999. A mixture of [3H]WIN-35428 (N-methyl 3H-WIN-35428, Perkin Elmer) and bead-membrane complex was added to wells containing test compound. Wells containing nomifensine maleate ([…], Sigma) were used to define non-specific […] binding. Total radioligand was defined by assay buffer containing 1% DMSO in the presence of [3H]WIN-35428. DAT Ki values were calculated using GraphPad Prism software (version 4.0).

human recombinant NET = biological target: T1, human recombinant NET (Homo sapiens, UniProt P23975); assay: NET radioligand binding assay (scintillation proximity, [3H]nisoxetine); conditions: HEK293 cell membranes expressing human recombinant NET; [3H]nisoxetine; SPA; read-out: NET Ki
T1 construct: membranes)
T1 sequence (P23975 whole entry): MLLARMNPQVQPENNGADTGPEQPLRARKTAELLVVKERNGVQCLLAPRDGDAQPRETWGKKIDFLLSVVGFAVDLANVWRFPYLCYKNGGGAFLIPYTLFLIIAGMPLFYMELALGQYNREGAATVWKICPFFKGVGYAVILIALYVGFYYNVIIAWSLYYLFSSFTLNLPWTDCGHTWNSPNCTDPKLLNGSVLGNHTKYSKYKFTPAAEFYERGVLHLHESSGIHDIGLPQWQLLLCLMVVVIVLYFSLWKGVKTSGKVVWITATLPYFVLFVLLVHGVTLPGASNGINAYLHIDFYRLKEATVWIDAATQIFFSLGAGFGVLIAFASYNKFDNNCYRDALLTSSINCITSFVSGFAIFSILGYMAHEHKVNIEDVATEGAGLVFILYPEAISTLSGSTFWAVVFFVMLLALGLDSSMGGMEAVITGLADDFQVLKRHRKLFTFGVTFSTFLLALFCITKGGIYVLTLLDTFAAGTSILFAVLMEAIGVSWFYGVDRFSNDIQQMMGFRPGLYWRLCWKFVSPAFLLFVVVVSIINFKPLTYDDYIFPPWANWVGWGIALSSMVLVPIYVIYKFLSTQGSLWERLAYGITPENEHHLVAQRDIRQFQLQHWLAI
Protocol: as §1, §2, §3, §4
NET receptor binding was determined using procedures described in Mason et al., The Journal of Pharmacology and Experimental Therapeutics 323:720-729, 2007; and Eshleman et al., The Journal of Pharmacology and Experimental Therapeutics289:877-885, 1999. A mixture of [3H]nisoxetine hydrochloride (N-methyl-[3H]nisoxetine, Perkin Elmer) and bead-membrane complex was added to wells containing test compound. Wells containing unlabeled nisoxetine (100 uM, Sigma) were used to define non-specific NET binding. Total radioligand was defined using assay buffer containing 1% DMSO in the presence of [3H]nisoxetine. NET Ki values were calculated using GraphPad Prism software (version 4.0).

human recombinant SERT = biological target: T2, human recombinant SERT (Homo sapiens, UniProt P31645); assay: SERT radioligand binding assay (scintillation proximity, [3H]citalopram); conditions: HEK293 cell membranes expressing human recombinant SERT; [3H]citalopram; SPA; read-out: SERT Ki
T2 construct: membranes)
T2 sequence (P31645 whole entry): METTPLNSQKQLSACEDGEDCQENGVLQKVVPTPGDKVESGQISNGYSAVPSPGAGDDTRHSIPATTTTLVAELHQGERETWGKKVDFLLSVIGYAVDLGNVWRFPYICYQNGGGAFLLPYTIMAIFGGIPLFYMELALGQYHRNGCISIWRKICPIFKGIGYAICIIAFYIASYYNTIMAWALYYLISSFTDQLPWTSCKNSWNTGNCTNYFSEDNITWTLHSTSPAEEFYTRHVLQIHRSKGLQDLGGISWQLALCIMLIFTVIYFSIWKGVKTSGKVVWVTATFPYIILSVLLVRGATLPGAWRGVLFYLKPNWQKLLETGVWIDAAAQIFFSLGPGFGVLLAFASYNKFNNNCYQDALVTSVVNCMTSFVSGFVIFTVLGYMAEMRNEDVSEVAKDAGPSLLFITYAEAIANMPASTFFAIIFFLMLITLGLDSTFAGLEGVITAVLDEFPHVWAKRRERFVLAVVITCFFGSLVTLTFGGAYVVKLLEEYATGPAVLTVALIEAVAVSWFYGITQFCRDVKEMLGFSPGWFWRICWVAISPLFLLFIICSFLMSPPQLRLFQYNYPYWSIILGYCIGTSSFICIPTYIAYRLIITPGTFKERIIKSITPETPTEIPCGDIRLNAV
Protocol: as §1, §2, §3, §4
SERT receptor binding was determined using procedures described in Owens et al., The Journal of Pharmacology and Experimental Therapeutics 283:1305-1322, 1997. A mixture of [3H]citalopram (N-methyl-[3H]citalopram, Perkin Elmer) and bead-membrane complex was added to wells containing test compound. Non-specific binding was determined using wells containing venlafaxine hydrochloride (100 uM, Sigma). Total radioligand was determined using assay buffer containing 1% DMSO in the presence of [3H]citalopram. SERT Ki values were calculated using GraphPad Prism software (version 4.0).

Chain of human recombinant DAT (Q01959 whole entry): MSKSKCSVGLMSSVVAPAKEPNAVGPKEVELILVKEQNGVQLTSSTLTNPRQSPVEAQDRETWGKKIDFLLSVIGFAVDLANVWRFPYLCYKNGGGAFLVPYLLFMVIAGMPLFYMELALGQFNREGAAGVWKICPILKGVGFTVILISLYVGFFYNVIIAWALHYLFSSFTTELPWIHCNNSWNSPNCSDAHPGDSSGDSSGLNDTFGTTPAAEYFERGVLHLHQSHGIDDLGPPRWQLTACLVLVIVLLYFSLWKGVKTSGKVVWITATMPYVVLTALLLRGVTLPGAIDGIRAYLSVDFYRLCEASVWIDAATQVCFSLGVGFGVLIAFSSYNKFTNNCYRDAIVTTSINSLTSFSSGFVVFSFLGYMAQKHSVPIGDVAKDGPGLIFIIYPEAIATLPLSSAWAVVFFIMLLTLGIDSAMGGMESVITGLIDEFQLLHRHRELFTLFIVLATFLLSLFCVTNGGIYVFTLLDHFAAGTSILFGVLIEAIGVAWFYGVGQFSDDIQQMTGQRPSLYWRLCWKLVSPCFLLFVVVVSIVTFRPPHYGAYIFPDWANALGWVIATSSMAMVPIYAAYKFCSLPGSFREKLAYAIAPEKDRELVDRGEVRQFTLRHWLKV

Row | Compound | pKi (human recombinant DAT) | pKi (human recombinant NET) | pKi (human recombinant SERT)
1 | CC(C)NCC(O)C1(c2ccc(Cl)c(Cl)c2)CCC1 (stereo not drawn) [Compound 19, {2-[1-(3,4-dichlorophenyl)cyclobutyl]-2-hydroxyethyl}(propan-2-yl)azanium chloride] | 7.00 to 7.96 | 7.00 to 7.96 | 6.30 to 7.00
2 | CC(C)(C)NCC(O)C1(c2ccc(Cl)c(Cl)c2)CCC1 (stereo not drawn) [Compound 20, tert-butyl({2-[1-(3,4-dichlorophenyl)cyclobutyl]-2-hydroxyethyl})azanium chloride] | 7.00 to 7.96 | 7.00 to 7.96 | 6.30 to 7.00
3 | COC1CCCN(CC(O)C2(c3ccc(Cl)c(Cl)c3)CCC2)C1 (stereo not drawn) [Compound 33, 1-{2-[1-(3,4-Dichlorophenyl)cyclobutyl]-2-hydroxyethyl}-3-methoxypiperidin-1-ium chloride] | > 8.00 | 6.30 to 7.00 | < 6.30
4 | OC(CN1CCCC(F)(F)C1)C1(c2ccc(Cl)c(Cl)c2)CCC1 (stereo not drawn) [Compound 22, 1-{2-[1-(3,4-Dichlorophenyl)cyclobutyl]-2-hydroxyethyl}-3,3-difluoropiperidin-1-ium chloride] | > 8.00 | 6.30 to 7.00 | < 6.30
5 | OC(CN1CCCCC1)C1(c2ccc3ccccc3c2)CCC1 (stereo not drawn) [Compound 15, 1-{2-hydroxy-2-[1-(naphthalen-2-yl)cyclobutyl]ethyl}piperidin-1-ium chloride] | 7.00 to 7.96 | 7.00 to 7.96 | 6.30 to 7.00
6 | OC(CN1CCCC(F)C1)C1(c2ccc(Cl)c(Cl)c2)CCC1 (stereo not drawn) [Compound 21, 1-{2-[1-(3,4-Dichlorophenyl)cyclobutyl]-2-hydroxyethyl}-3-fluoropiperidin-1-ium chloride] | > 8.00 | 7.00 to 7.96 | < 6.30
7 | CC1(NCC(O)C2(c3ccc(Cl)c(Cl)c3)CCC2)CCC1 (stereo not drawn) [Compound 38, N-{2-[1-(3,4-Dichlorophenyl)cyclobutyl]-2-hydroxyethyl}-1-methylcyclobutan-1-aminium chloride] | > 8.00 | 7.00 to 7.96 | 6.30 to 7.00
8 | Clc1ccc(C2(CN3CCCCC3)CCC2)cc1Cl [Compound 3] | 7.00 to 7.96 | 7.00 to 7.96 | 6.30 to 7.00
9 | O[C@H](CN1CCCCC1)C1(c2ccc(Cl)c(Cl)c2)CCC1 [Compound 13, 1-[(2S)-2-[1-(3,4-dichlorophenyl)cyclobutyl]-2-hydroxyethyl]piperidin-1-ium chloride] | 7.00 to 7.96 | 7.00 to 7.96 | < 6.30
10 | OC(CN1CCCCC1)C1(c2ccc(Cl)c(Cl)c2)CCC1 (stereo not drawn) [Compound 7, 1-{2-[1-(3,4-Dichlorophenyl)cyclobutyl]-2-hydroxyethyl}piperidin-1-ium chloride] | 7.00 to 7.96 | 6.30 to 7.00 | < 6.30
11 | O=C(CN1CCCCC1)C1(c2cccc(Cl)c2)CCC1 [Compound 69] | < 6.30 | < 6.30 | < 6.30
12 | OC(CNC1CCC1)C1(c2ccc(Cl)c(Cl)c2)CCC1 (stereo not drawn) [Compound 36, N-{2-[1-(3,4-Dichlorophenyl)cyclobutyl]-2-hydroxyethyl}cyclobutanaminium chloride] | 7.00 to 7.96 | 6.30 to 7.00 | 6.30 to 7.00
13 | CCN(CC)CC(O)C1(c2ccc(Cl)c(Cl)c2)CCC1 (stereo not drawn) [Compound 18, {2-[1-(3,4-Dichlorophenyl)cyclobutyl]-2-hydroxyethyl}diethylazanium chloride] | 7.00 to 7.96 | 7.00 to 7.96 | < 6.30
14 | CC(F)C(C)NCC(O)C1(c2ccc(Cl)c(Cl)c2)CCC1 (stereo not drawn) [Compound 42, {2-[1-(3,4-dichlorophenyl)cyclobutyl]-2-hydroxyethyl}(3-fluorobutan-2-yl)azanium chloride] | 7.00 to 7.96 | 6.30 to 7.00 | 6.30 to 7.00
15 | OC(CN1CC2CC(F)C1C2)C1(c2ccc(Cl)c(Cl)c2)CCC1 (stereo not drawn) [Compound 39, 2-{2-[1-(3,4-Dichlorophenyl)cyclobutyl]-2-hydroxyethyl}-6-fluoro-2-azabicyclo[2.2.1]heptan-2-ium chloride] | 6.30 to 7.00 | 6.30 to 7.00 | < 6.30
